{
  "source": "patent US7026518B2",
  "about": "(Laila Impex, priority 2002, dated 2006)",
  "key": {"[1]": {"experiment": "Superoxide scavenging activity (NBT), McCord and Fridovich method", "details": "light induced superoxide generation by riboflavin, reduction of NBT", "procedure": "Antioxidant (superoxide scavenging) activity of these compounds are determined by conventional methods like McCord and Fridovich method, which is based on light induced superoxide generation by riboflavin and corresponding reduction of NBT. The assay mixture contains phosphate buffer, EDTA, NBT and riboflavin. Different concentrations of these compounds were assessed and their optical densities measured before and after illumination. The percentage value of inhibition of superoxide production by the compounds of this invention was evaluated and compared with the absorbance value of control and experimental data."}},
  "data": [
    {"smiles": "Oc1cc(/C=C/c2cc(O)c(O)c(O)c2)cc(O)c1O", "note": "[Compound 3, 5-[(1E)-2-(3,4,5-trihydroxyphenyl)vinyl]-benzene1,2,3-triol]", "values": [
      {"measurement": "Superoxide scavenging activity (NBT) IC50", "setting": "[1]", "result": 0.9, "unit": "µg/mL"}
    ]},
    {"smiles": "O=C(Oc1cc(/C=C/c2ccc(O)cc2)cc(OC(=O)c2cc(O)c(O)c(O)c2)c1)c1cc(O)c(O)c(O)c1", "note": "[Compound 5, 3-[(1E)-2-(4-hydroxyphenyl)vinyl]-5-(3,4,5trihydroxyphenylcarbonyloxy)-phenyl 3,4,5-trihydroxybenzoate]", "values": [
      {"measurement": "Superoxide scavenging activity (NBT) IC50", "setting": "[1]", "result": 17.5, "unit": "µg/mL"}
    ]},
    {"smiles": "O=C(Oc1cc(O)cc(/C=C/c2ccc(O)cc2)c1)c1cc(O)c(O)c(O)c1", "note": "[Compound 4, 5-[(1E)2-(4-hydroxyphenyl)vinyl]-3-hydroxyphenyl 3,4,5-trihydroxybenzoate]", "values": [
      {"measurement": "Superoxide scavenging activity (NBT) IC50", "setting": "[1]", "result": 16.0, "unit": "µg/mL"}
    ]},
    {"smiles": "Oc1ccc(/C=C/c2cc(O)c(O)c(O)c2)cc1O", "note": "[Compound 1, 5-[(1E)-2-(3,4-dihydroxyphenyl)vinyl]-benzene1,2,3-triol]", "values": [
      {"measurement": "melting point", "result": "150 to 152", "unit": "°C"},
      {"measurement": "Superoxide scavenging activity (NBT) IC50", "setting": "[1]", "result": 3.0, "unit": "µg/mL"}
    ]},
    {"smiles": "Cl.NCC(=O)Oc1cc(O)cc(/C=C/c2ccc(O)cc2)c1", "note": "[Compound 9, 5-[(1E)-2-(4-hydroxyphenyl)vinyl]-3-hydroxyphenyl 2-aminoacetate hydrochloride]", "values": [
      {"measurement": "Superoxide scavenging activity (NBT) IC50", "setting": "[1]", "result": 29.3, "unit": "µg/mL"}
    ]},
    {"smiles": "O=C(/C=C/c1ccc(O)c(O)c1)Oc1cc(O)cc(/C=C/c2ccc(O)cc2)c1", "note": "[Compound 6, 5-[(1E)-2-(4-hydroxyphenyl)vinyl]-3-hydroxyphenyl(2E)-3(3,4-dihydroxyphenyl) prop-2-enoate]", "values": [
      {"measurement": "Superoxide scavenging activity (NBT) IC50", "setting": "[1]", "result": 9.2, "unit": "µg/mL"}
    ]},
    {"smiles": "Oc1cc(/C=C/c2cc(O)c(O)c(Br)c2)cc(O)c1O", "note": "[Compound 2, 5-[(1E)-2-(5-Bromo-3,4-dihydroxyphenyl)vinyl]-benzene1,2,3-triol]", "values": [
      {"measurement": "melting point", "result": "180 to 182", "unit": "°C"},
      {"measurement": "Superoxide scavenging activity (NBT) IC50", "setting": "[1]", "result": 8.1, "unit": "µg/mL"}
    ]},
    {"smiles": "CN(C)CCOc1cc(O)cc(/C=C/c2ccc(O)cc2)c1", "note": "[Compound 8, 3-[(1E)-2-(4-hydroxyphenyl)vinyl]-5-[2-(dimethylamino)ethoxy] phenol]", "values": [
      {"measurement": "melting point", "result": "92 to 94", "unit": "°C"},
      {"measurement": "Superoxide scavenging activity (NBT) IC50", "setting": "[1]", "result": 34.1, "unit": "µg/mL"}
    ]},
    {"smiles": "O=C(/C=C/c1cc(O)c(O)c(O)c1)Oc1cc(O)cc(/C=C/c2ccc(O)cc2)c1", "note": "[Compound 7, 5-[(1E)-2-(4-hydroxyphenyl)vinyl]-3-hydroxyphenyl(2E)3(3,4,5-trihydroxyphenyl) prop-2-enoate]", "values": [
      {"measurement": "Superoxide scavenging activity (NBT) IC50", "setting": "[1]", "result": 10.0, "unit": "µg/mL"}
    ]}
  ]
}
